The NIST ThermoML archive (doi:10.1016/j.jct.2008.06.003)
± gives the expanded uncertainty stated by the source.

What was measured:
[1] = Crystal; for molar enthalpy of sublimation: 298.15 K, Static calorimetry
[2] = Molar enthalpy of transition or fusion; settings: Crystal; DSC

molar enthalpy of sublimation [1] | Molar enthalpy of transition or fusion [2] | Normal melting temperature ([1]; DTA) | Compound
28.2 ± 1 kcal/mol | – | – | O=C(O)C1COc2ccccc2O1 (centres undefined) [1,4-benzodioxan-2-carboxylic acid]
25.5 ± 0.406 kcal/mol | 6.88 ± 0.151 kcal/mol | 89.2 ± 0.53 °C | OCC1COc2ccccc2O1 (centres undefined) [1,4-benzodioxane-2-methanol]
